Source: ChEMBL document CHEMBL1131774, “Synthesis of water-soluble phenytoin prodrugs” (Bioorg Med Chem Lett, 1999)

Key:
Type in all cases: ADME, organism-based
Details in all cases: rat, read-out: Hydrolysis
[1] = Compound was tested for percent hydrolysis in whole blood after a time interval of 0.5 min
[2] = Compound was tested for percent hydrolysis in whole blood after a time interval of 180.0 min
[3] = Compound was tested for percent hydrolysis in whole blood after a time interval of 2.0 min
[4] = Compound was tested for percent hydrolysis in whole blood after a time interval of 7.0 min
[5] = Compound was tested for percent hydrolysis in whole blood, after a time interval of 15.0 min
[6] = Compound was tested for percent hydrolysis in whole blood after a time interval of 60.0 min
[7] = Compound was tested for percent hydrolysis in whole blood after a time interval of 5.0 min

CC(OC(=O)CCCC(=O)O)N1C(=O)NC(c2ccccc2)(c2ccccc2)C1=O (stereo unspecified)
metabolised at 0.5 min [1]: 15% | metabolised at 3 h [2]: 45.1% | metabolised at 2 min [3]: 26.7% | metabolised at 7 min [4]: 36.9% | metabolised at 0.25 h [5]: 37.2% | metabolised at 1 h [6]: 39.6%

O=C(CN1CCOCC1)OCN1C(=O)NC(c2ccccc2)(c2ccccc2)C1=O
metabolised at 0.5 min [1]: 28.7% | metabolised at 2 min [3]: 80.1% | metabolised at 5 min [7]: 91% | metabolised at 0.25 h [5]: 93.6% | metabolised at 1 h [6]: 99.3%

O=C(CN1CCCCC1)OCN1C(=O)NC(c2ccccc2)(c2ccccc2)C1=O
metabolised at 0.5 min [1]: 49.2% | metabolised at 2 min [3]: 96.5% | metabolised at 5 min [7]: 97.5%

CC(OC(=O)CCC(=O)O)N1C(=O)NC(c2ccccc2)(c2ccccc2)C1=O (stereo unspecified)
metabolised at 0.5 min [1]: 25.7% | metabolised at 3 h [2]: 69.2% | metabolised at 2 min [3]: 42.4% | metabolised at 7 min [4]: 52.8% | metabolised at 0.25 h [5]: 55.9% | metabolised at 1 h [6]: 59.6%

O=C1NC(c2ccccc2)(c2ccccc2)C(=O)N1COP(=O)(O)O [FOSPHENYTOIN SODIUM]
metabolised at 0.5 min [1]: 7.95% | metabolised at 3 h [2]: 95.3% | metabolised at 2 min [3]: 11.6% | metabolised at 7 min [4]: 25% | metabolised at 0.25 h [5]: 45.4% | metabolised at 1 h [6]: 87.5%
